PubChem BioAssay AID330 (DTP/NCI, 2004)
Where “and” joins values, the source holds several entries; their conditions need not be identical. Equal values may be shown once. Toxic doses and inconclusive results are not listed. The calls were made as follows: active = survival T/C of 150% or more; inactive = T/C below 125% in these data.

Tested on: P388 leukemia ip, CD2F1 mice, survival T/C
Experiment: NCI In Vivo Anticancer Drug Screen. Data for tumor model P388 Leukemia (intraperitoneal) in CD2F1 (CDF1) mice
Conditions: endpoint: median survival time, higher = longer survival
In short: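 Mice carrying the transplanted tumor received test compound or vehicle. Survival was recorded in each group, and the value is the treated-group measurement divided by that of the vehicle-treated control group.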

[1] = dose: 60.0 mg/kg/injection, schedule: Q01DX005 (ip), vehicle: saline with Tween-80
[2] = dose: 120.0 mg/kg/injection, schedule: Q01DX005 (ip), vehicle: saline with Tween-80
[3] = dose: 12.5 mg/kg/injection, schedule: Q01DX005 (ip), vehicle: saline
[4] = dose: 25.0 mg/kg/injection, schedule: Q01DX005 (ip), vehicle: saline
[5] = dose: 50.0 mg/kg/injection, schedule: Q01DX005 (ip), vehicle: saline
[6] = dose: 12.5 mg/kg/injection, schedule: Q01DX005 (ip), vehicle: saline with Tween-80
[7] = dose: 25.0 mg/kg/injection, schedule: Q01DX005 (ip), vehicle: saline with Tween-80
[8] = dose: 50.0 mg/kg/injection, schedule: Q01DX005 (ip), vehicle: saline with Tween-80
[9] = dose: 50.0 mg/kg/injection, schedule: Q01DX009 (ip), vehicle: saline
[10] = dose: 100.0 mg/kg/injection, schedule: Q01DX009 (ip), vehicle: saline
[11] = dose: 200.0 mg/kg/injection, schedule: Q01DX009 (ip), vehicle: saline
[12] = dose: 50.0 mg/kg/injection, schedule: Q01DX009 (ip), vehicle: Klucel (hydroxypropylcellulose) (HPC)
[13] = dose: 100.0 mg/kg/injection, schedule: Q01DX009 (ip), vehicle: Klucel (hydroxypropylcellulose) (HPC)

Measured: T/C

CCN(CC)CCCC(C)Nc1c2ccc(Cl)cc2nc2ccc(OC)cc12 (configuration not stated)
inactive: dose: 3.0 mg/kg/injection, schedule: Q03HX024 (ip), vehicle: saline with Tween-80 108 % of control | dose: 4.0 mg/kg/injection, schedule: Q01DX009 (ip), vehicle: suspension in saline 104 % of control | dose: 4.0 mg/kg/injection, schedule: Q#A X018 (ip), vehicle: saline with Tween-80 97 % of control | dose: 6.0 mg/kg/injection, schedule: Q03HX024 (ip), vehicle: saline with Tween-80 93 % of control | dose: 8.0 mg/kg/injection, schedule: Q01DX009 (ip), vehicle: saline with Tween-80 104 % of control and 105 % of control | dose: 8.0 mg/kg/injection, schedule: Q01DX009 (ip), vehicle: suspension in saline 110 % of control | dose: 8.0 mg/kg/injection, schedule: Q#A X018 (ip), vehicle: saline with Tween-80 87 % of control | dose: 16.0 mg/kg/injection, schedule: Q01DX009 (ip), vehicle: saline with Tween-80 106 % of control and 120 % of control | dose: 16.0 mg/kg/injection, schedule: Q01DX009 (ip), vehicle: suspension in saline 108 % of control | dose: 16.0 mg/kg/injection, schedule: Q#A X018 (ip), vehicle: saline with Tween-80 91 % of control | dose: 20.0 mg/kg/injection, schedule: Q04DX003 (ip), vehicle: saline with Tween-80 100 % of control | dose: 24.0 mg/kg/injection, schedule: Q03HX024 (ip), vehicle: saline with Tween-80 108 % of control | dose: 24.0 mg/kg/injection, schedule: Q04DX003 (ip), vehicle: saline with Tween-80 97 % of control | dose: 32.0 mg/kg/injection, schedule: Q01DX009 (ip), vehicle: saline with Tween-80 117 % of control | dose: 32.0 mg/kg/injection, schedule: Q01DX009 (ip), vehicle: suspension in saline 113 % of control | dose: 32.0 mg/kg/injection, schedule: Q#A X018 (ip), vehicle: saline with Tween-80 104 % of control | dose: 40.0 mg/kg/injection, schedule: Q04DX003 (ip), vehicle: saline with Tween-80 100 % of control | dose: 48.0 mg/kg/injection, schedule: Q04DX003 (ip), vehicle: saline with Tween-80 97 % of control | dose: 64.0 mg/kg/injection, schedule: Q01DX009 (ip), vehicle: suspension in saline 113 % of control | dose: 71.0 mg/kg/injection, schedule: Q01DX001 (ip), vehicle: saline with Tween-80 106 % of control | dose: 80.0 mg/kg/injection, schedule: Q04DX003 (ip), vehicle: saline with Tween-80 108 % of control | dose: 96.0 mg/kg/injection, schedule: Q04DX003 (ip), vehicle: saline with Tween-80 106 % of control | dose: 128.0 mg/kg/injection, schedule: Q01DX009 (ip), vehicle: saline with Tween-80 98 % of control | dose: 128.0 mg/kg/injection, schedule: Q01DX009 (ip), vehicle: suspension in saline 91 % of control | dose: 143.0 mg/kg/injection, schedule: Q01DX001 (ip), vehicle: saline with Tween-80 113 % of control

Clc1ccc(NCNC2Nc3ccccc3N2)cc1Cl
inactive: [1] 94 % of control | [2] 93 % of control

CC(C)N1COC(c2ccccc2)C1 (configuration not stated)
inactive: [3] 106 % of control and 88 % of control | [4] 123 % of control and 96 % of control | [5] 100 % of control and 110 % of control and 117 % of control | dose: 100.0 mg/kg/injection, schedule: Q01DX005 (ip), vehicle: saline 124 % of control

CCC/C=C(/C=N/Nc1ccc([N+](=O)[O-])cc1[N+](=O)[O-])CC
inactive: [6] 97 % of control | [7] 109 % of control | [8] 91 % of control and 95 % of control

C[CH2][Ge]([CH3])([CH2]C)[CH2]CCC[CH2][Sn]([CH3])([CH3])[CH3]
inactive: [9] 98 % of control | [10] 99 % of control | [11] 97 % of control

Cn1c(=O)[nH]c2nnc(-c3ccccc3)nc2c1=O
inactive: [12] 107 % of control | [13] 106 % of control

CC(=O)C1=C(C(C)=O)C2(C)OC1(C)c1ccccc12
inactive: dose: 100.0 mg/kg/injection, schedule: Q01DX001 (ip), vehicle: Klucel (hydroxypropylcellulose) (HPC) 107 % of control | dose: 200.0 mg/kg/injection, schedule: Q01DX001 (ip), vehicle: Klucel (hydroxypropylcellulose) (HPC) 104 % of control | dose: 400.0 mg/kg/injection, schedule: Q01DX001 (ip), vehicle: Klucel (hydroxypropylcellulose) (HPC) 99 % of control

Cc1ccc(C2=C/C(=C/c3ccc(N(CCC#N)CCC#N)cc3)C(=O)O2)c(C)c1
inactive: dose: 100.0 mg/kg/injection, schedule: Q01DX001 (ip), vehicle: saline with Tween-80 95 % of control | dose: 200.0 mg/kg/injection, schedule: Q01DX001 (ip), vehicle: saline with Tween-80 95 % of control | dose: 400.0 mg/kg/injection, schedule: Q01DX001 (ip), vehicle: saline with Tween-80 87 % of control

COC(=O)C1(CC(=O)c2ccc(Cl)c(Cl)c2)NC(=S)NC(=O)C1C#N (configuration not stated)
inactive: [1] 106 % of control | [2] 97 % of control | dose: 240.0 mg/kg/injection, schedule: Q01DX005 (ip), vehicle: saline with Tween-80 96 % of control

COc1ccc2c3c1O[C@H](c1ccc(O)cc1)[C@H]3[N+](C)(C)CC2
inactive: dose: 6.25 mg/kg/injection, schedule: Q01DX005 (ip), vehicle: Klucel (hydroxypropylcellulose) (HPC) 107 % of control | dose: 12.5 mg/kg/injection, schedule: Q01DX005 (ip), vehicle: Klucel (hydroxypropylcellulose) (HPC) 110 % of control | dose: 25.0 mg/kg/injection, schedule: Q01DX005 (ip), vehicle: Klucel (hydroxypropylcellulose) (HPC) 110 % of control | dose: 50.0 mg/kg/injection, schedule: Q01DX005 (ip), vehicle: Klucel (hydroxypropylcellulose) (HPC) 103 % of control

CCN(CC#N)c1ccc(C=Nc2ccc(OC)cc2OC)cc1
inactive: dose: 50.0 mg/kg/injection, schedule: Q01DX009 (ip), vehicle: saline with Tween-80 91 % of control | dose: 100.0 mg/kg/injection, schedule: Q01DX009 (ip), vehicle: saline with Tween-80 93 % of control | dose: 200.0 mg/kg/injection, schedule: Q01DX009 (ip), vehicle: saline with Tween-80 97 % of control

OCC1OC2OC3C(CO)OC(OC4C(CO)OC(OC5C(CO)OC(OC6C(CO)OC(OC7C(CO)OC(OC1C(O)C2O)C(O)C7O)C(O)C6O)C(O)C5O)C(O)C4O)C(O)C3O (configuration not stated)
inactive: [9] 94 % of control | [10] 89 % of control | [11] 96 % of control

CCCC(C)N(CCCNc1cc(OC)cc2cccnc12)CC(C)C (configuration not stated)
inactive: [3] 100 % of control | [4] 107 % of control | [8] 96 % of control | [5] 94 % of control

CS/C(=C/c1ccc2ccccc2[n+]1C)N1CCN(C)CC1
inactive: dose: 6.25 mg/kg/injection, schedule: Q01DX005 (ip), vehicle: saline 99 % of control | [3] 98 % of control | [4] 102 % of control

Cc1nc(-c2ccccc2)oc1C(N)=O
inactive: [12] 108 % of control | [13] 110 % of control

CCN(CC)CCC(=O)c1ccc(Cl)c2ccccc12
inactive: dose: 6.25 mg/kg/injection, schedule: Q01DX005 (ip), vehicle: saline with Tween-80 101 % of control | [6] 93 % of control | [7] 99 % of control and 104 % of control | [8] 109 % of control | dose: 100.0 mg/kg/injection, schedule: Q01DX005 (ip), vehicle: saline with Tween-80 93 % of control
